How the values were obtained:
Map3 = target: T1, Map3 (Schizosaccharomyces pombe, UniProt P31397); assay: Shmooing assay of synthetic M-factor peptides on P cells lacking rgs1+ (TS405); type: cell-based, S. pombe; settings: EMM2−N
T1 construct: an M-factor-sensitive strain lacking the rgs1^+ gene [53]; endogenous in cells; host or cells: S. pombe heterothallic haploid P cells lacking rgs1+ (TS405)
T1 sequence (P31397 1-365): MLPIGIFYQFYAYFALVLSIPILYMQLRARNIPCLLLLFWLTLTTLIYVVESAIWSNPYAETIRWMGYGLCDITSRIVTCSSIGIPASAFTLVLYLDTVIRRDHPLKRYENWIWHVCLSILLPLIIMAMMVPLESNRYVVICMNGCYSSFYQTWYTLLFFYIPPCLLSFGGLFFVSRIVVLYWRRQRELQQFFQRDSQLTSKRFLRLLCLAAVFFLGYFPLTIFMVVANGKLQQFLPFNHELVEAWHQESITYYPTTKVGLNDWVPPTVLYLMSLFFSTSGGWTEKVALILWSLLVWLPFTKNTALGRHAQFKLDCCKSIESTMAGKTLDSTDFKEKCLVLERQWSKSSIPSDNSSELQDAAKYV
Protocol: Under these conditions, approximately 40% of cells treated with Sp-M-factor peptide underwent shmoo formation, whereas no cells treated with So-M-factor peptide underwent shmooing (S5B Fig). When the concentration of So-M-factor was raised to 1,000 nM, the cells underwent shmoo elongation a little (S5B Fig).
P-factor and M-factor peptides were chemically synthesized (Eurofins) for the shmooing assay. The purity of the preparations was over 95% (HPLC). P-factor was dissolved in dimethyl sulfoxide (DMSO) at a concentration of 500 μM, and M-factor was dissolved in methanol (MeOH) at a concentration of 1 mM. The stock solutions were diluted with culture medium to the appropriate dilution ratio. For the assay, heterothallic haploid cells were grown in YE medium overnight, washed with sterilized water three times, and then resuspended in EMM2−N medium at a cell density of 4 × 10^7 cells/ml. The cells were treated with the synthetic pheromone and incubated for exactly 24 hours with gentle shaking.
To assess whether Mam2 could recognize different P-factors, a P-factor sensitive strain lacking the sxa2^+ gene (TS402) was used. The cells were incubated with synthetic P-factors at different concentrations (0, 10, 100, and 1,000 nM) for 24 hours and observed by a DIC microscope. Images were recorded, and the L and W of a cell were measured to determine the L/W ratio. […] In all cases, at least 100 cells each were measured. […] The cells were treated with synthetic M-factors at different concentrations (0, 100, and 1,000 nM) for 24 hours, and analyzed, as described above.
Supplementary file pbio.3000101.s005.tif: S5 Fig Effects of mating pheromones of S. octosporus on S. pombe cells. […] The ability of each M-factor peptide to induce shmooing was assessed by the L/W ratio of a cell, as described in S3 Fig. (C) Comparison of the amino sequences of Sp-P-factors and So-P-factors. […] The shmooing assay was evaluated as described in S3 Fig. EMM2−N, Edinburgh Minimal Medium 2 lacking nitrogen; L, length; M, Minus; P, Plus; rgs, regulator of G-protein signaling; So, S. octosporus; Sp, S. pombe; W, width. […]

S. pombe cells = assay: Quantitative assay of zygote formation (mating efficiency), S. pombe strains; type: cell-based; settings: peptide produced by engineered strain; mfm1 gene integrated in M-factorless strain FY23412; MEA, 2 days, 30 °C; mean ± SD of triplicate
Protocol: The resulting strains each produced one of the six P-factors. The mating efficiency of these strains was assessed by the frequency of zygotes. […] To determine whether the order of nucleotide sequences encoding mature P-factor affects zygote frequency, we also introduced a map2 gene carrying a permuted sequence of repeats (P2-P3-P2-P1) into the FY23418 strain. Similar to the strain with the native sequence, this strain also mated at high frequency (74.2% ± 1.7%) (Fig 2D); therefore, the effect of peptide-coding position appears small.
Next, we assessed whether the pheromone peptides of S. octosporus are effective on S. pombe cells. […] Next, we replaced the Sp-M-factor–encoding sequence in the mfm1^+ gene with the So-M-factor–encoding sequence (mfm1^So). […] In short, S. pombe P cells were unable to mate with M cells producing So-M-factor. […] We also replaced the So-P-factor–encoding sequence (7 repeats) in the So-map2^+ gene with the Sp-P-factor–encoding sequence (4 repeats) (So-map2^Sp) in S. octosporus cells. […]
Cells grown on YEA plates overnight were resuspended in sterilized water to a cell density of 1 × 10^8 cells/ml. […] The percentage of zygotes was calculated, as described previously. In all cases, triplicate samples (at least 300 cells each) were counted, and the mean and standard deviation (SD) were calculated.

[1] = TS405 P cells (rgs1Δ), 100 nM synthetic M-factor, one day

Row | Substance | Proportion of cells that underwent shmoo formation, 100 nM (Map3; [1]) | Mating efficiency (zygotes) of S. pombe strain producing only this M-factor (S. pombe cells) | Shmooing at 100 nM (in words) (Map3; [1]) | Shmoo elongation at 1,000 nM (in words) (Map3; TS405 P cells (rgs1Δ), 1,000 nM synthetic M-factor, 24 hours)
1 | YTPKVPYMC^Far-OCH3 [Sp-M-factor, S. pombe mature M-factor, farnesylated and methylated peptide of nine amino acids, reference compound] | approximately 40% | 72.1% ± 3.7% | – | –
2 | YQPKPPAMC^Far-OCH3 [So-M-factor, putative M-factor of S. octosporus, farnesylated methylated nonapeptide] | – | completely sterile | no cells | a little
